Results from the supplement of paper PMC9938120.

Tests used:
Test in all cases: drug sensitivity score (DSS3, normalised partial AUC of % inhibition dose-response) (DSS (score)); higher = more sensitive (stronger inhibition of viability); extreme values may be limits of the assay
Conditions in all cases: 72 h; library: FO5A; assay format: 2D, 384-well, CellTiter-Glo
FMOC06 = tested on: FMOC06 (patient-derived mucinous ovarian cancer cells)
Outline: (§1)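 The drug sensitivity score is calculated as a partial area under the percent-inhibition dose-response curve, divided by the log of the upper asymptote; higher scores mean more sensitive. For this score, early-passage (under 10) patient-derived ovarian cancer cells were exposed on 384-well flat clear-bottom plates to compounds at five concentrations across a 10,000-fold range for 72 h at 37 °C, 5% CO2. Viability was read with CellTiter-Glo and processed in Breeze.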

FMOC02_3 = tested on: FMOC02_3 (patient-derived low-grade serous ovarian cancer cells)
Outline: as §1

FMOC17 = tested on: FMOC17 (patient-derived low-grade serous ovarian cancer cells)
Outline: as §1

FMOC14 = tested on: FMOC14 (patient-derived high-grade serous ovarian cancer cells)
Outline: as §1

FMOC24 = tested on: FMOC24 (patient-derived high-grade serous ovarian cancer cells)
Outline: as §1

FMOC02_2 = tested on: FMOC02_2 (patient-derived low-grade serous ovarian cancer cells)
Outline: as §1

FMOC22 = tested on: FMOC22 (patient-derived mucinous ovarian cancer cells)
Outline: as §1

FMOC28 = tested on: FMOC28 (patient-derived low-grade serous ovarian cancer cells)
Outline: as §1

FMOC11 = tested on: FMOC11 (patient-derived high-grade serous ovarian cancer cells)
Outline: as §1

FMOC27 = tested on: FMOC27 (patient-derived low-grade serous ovarian cancer cells)
Outline: as §1

FMOC09 = tested on: FMOC09 (patient-derived high-grade serous ovarian cancer cells)
Outline: as §1

FMOC04 = tested on: FMOC04 (patient-derived high-grade serous ovarian cancer cells)
Outline: as §1

FMOC02_1 = tested on: FMOC02_1 (patient-derived low-grade serous ovarian cancer cells)
Outline: as §1

FMOC25_2 = tested on: FMOC25_2 (patient-derived low-grade serous ovarian cancer cells)
Outline: as §1

FMOC03 = tested on: FMOC03 (patient-derived mucinous ovarian cancer cells)
Outline: as §1

Compound | drug sensitivity score (FMOC06) | drug sensitivity score (FMOC02_3) | drug sensitivity score (FMOC17) | drug sensitivity score (FMOC14) | drug sensitivity score (FMOC24) | drug sensitivity score (FMOC02_2) | drug sensitivity score (FMOC22) | drug sensitivity score (FMOC28) | drug sensitivity score (FMOC11) | drug sensitivity score (FMOC27) | drug sensitivity score (FMOC09) | drug sensitivity score (FMOC04) | drug sensitivity score (FMOC02_1) | drug sensitivity score (FMOC25_2) | drug sensitivity score (FMOC03)
C[C@H](Nc1ncnc2[nH]cnc12)c1cc2ccc(F)cc2nc1-c1ccccn1 [AMG319] | 0 | 0 | 0.1 | 0 | 0.7 | 0.1 | 0 | 0 | 0 | 0 | 0 | 0 | 0 | 0 | 0
CC[C@]12C=CCN3CC[C@@]4(c5cc([C@@]6(C(=O)OC)C[C@@H]7C[C@@H](C(C)(F)F)CN(Cc8c6[nH]c6ccccc86)C7)c(OC)cc5N(C)[C@H]4[C@@](O)(C(=O)OC)[C@@H]1OC(C)=O)[C@@H]32 [Vinflunine] | 0.8 | 5.8 | 5.1 | 0 | 0 | 3.2 | 0.9 | 1.3 | 3.4 | 0.6 | 3.6 | 4.1 | 3.6 | 3.6 | 1.7
Cc1cn(-c2cc(NC(=O)c3ccc(C)c(Nc4nccc(-c5cnccn5)n4)c3)cc(C(F)(F)F)c2)cn1 [Radotinib] | 2.4 | 0 | 0 | 0 | 1 | 0 | 0 | 1.6 | 0 | 0 | 0 | 0 | 0 | 0.2 | 0
COc1cc(OC)cc(N(CCNC(C)C)c2ccc3ncc(-c4cnn(C)c4)nc3c2)c1 [Erdafitinib] | 0 | 2.1 | 0.3 | 0 | 1.1 | 0 | 0 | 0 | 0.7 | 0 | 0 | 0 | 0 | 0.4 | 0
CC1=C2C[C@H]3[C@@H](CC[C@@H]4C[C@H](NS(C)(=O)=O)CC[C@@]43C)[C@@H]2CC[C@@]2(C1)O[C@@H]1C[C@H](C)CN[C@H]1[C@H]2C [Saridegib] | 0 | 0 | 4.1 | 0 | 0.3 | 2.2 | 0 | 2.2 | 0 | 0 | 0 | 0 | 0 | 0 | 0
CC1(C)C(C(=O)Nc2ccc(S(=O)(=O)c3ccc(NC(=O)C4C(C)(C)C4(C)C)cc3)cc2)C1(C)C [BRD7116] | 0.8 | 3.7 | 1.4 | 0 | 1.5 | 0.1 | 0 | 1 | 2.2 | 0 | 0 | 0 | 0 | 0 | 0.5
N#Cc1ccnc(N2C(=O)CC[C@H]2C(=O)N(c2cncc(F)c2)[C@H](C(=O)NC2CC(F)(F)C2)c2ccccc2Cl)c1 [Ivosidenib] | 0 | 0 | 0.3 | 0 | 0.2 | 0 | 0 | 2.6 | 0 | 0 | 0 | 0 | 0.2 | 0 | 0
C[C@@H]1CN(C(=O)c2ccc(NC(=O)c3cc(O[C@H](C)c4c(Cl)ccc(F)c4Cl)c(N)nn3)cc2)C[C@H](C)N1 [Ensartinib] | 3 | 1.6 | 1.5 | 0 | 0.7 | 0.4 | 0.1 | 2.2 | 0.2 | 0 | 1.1 | 0.05 | 4.3 | 0.8 | 0
CC[C@@H]1[C@H](F)C(=O)N[C@@H]1COc1nccc2cc(C(N)=O)c(OC)cc12 | 0 | 5.2 | 0 | 0 | 0 | 0.6 | 0 | 0 | 0 | 0.5 | 0 | 0 | 2.6 | 4 | 0
CN(C)CCCOc1ccc(-c2ccc3ncc4c(c3c2)n(C2CCOCC2)c(=O)n4C)cn1 [AZD0156] | 0.1 | 3.1 | 2.2 | 0 | 0 | 3.4 | 0.9 | 4.6 | 0 | 0 | 0.1 | 0.8 | 5.3 | 2.5 | 0.5
CC[C@@H]1CN(C(=O)NCC(F)(F)F)C[C@@H]1c1cnc2cnc3[nH]ccc3n12 [Upadacitinib] | 1.3 | 0 | 0 | 0 | 1.2 | 0 | 0 | 2.1 | 0 | 0 | 0 | 0.1 | 0 | 0 | 0
CC(C)NC(=O)COc1cccc(-c2nc(Nc3ccc4[nH]ncc4c3)c3ccccc3n2)c1 [KD025] | 1.1 | 6.2 | 4.5 | 2.7 | 10.4 | 1.6 | 0 | 2.4 | 1.6 | 0 | 0.2 | 3.55 | 5.4 | 4.4 | 0
